Assay results reported in patent US20080279924A1, “HLA class I A2 tumor associated antigen peptides and vaccine compositions” (priority 1999, published 2008).

How the values were obtained:
PBMC from healthy donors = format: cell-based, human
HLA-DR molecules = settings: cited from earlier work

Row | Substance | antigen concentration at which the 10,000 cpm proliferation level was reached (PBMC from healthy donors) | donors with primary T cell responses (PBMC from healthy donors) | number of DR molecules bound of DR molecules tested (HLA-DR molecules)
1 | QYIKANSKFIGITE [Epitope 553.01] | about 10,000 ng/ml | 2 out of 3 | seven of 16
2 | aKXVAAWTLKAAa-NH2 [PADRE] | – | all three donors | –
